Reference: the supplement of paper PMC10702517
± gives the standard deviation.

Tests used:
[1] = chemical recovery into PDMS from spiked human plasma; higher = better extraction; settings: pooled human plasma, extraction method: PES with PDMS
[2] = chemical recovery from spiked human plasma; higher = better extraction; settings: pooled human plasma
[3] = chemical recovery by SPE of plasma after PDMS sampling; higher = better extraction; settings: pooled human plasma, extraction method: HLB SPE of plasma after PES
[4] = extraction method: PES+SPE (3 d PDMS equilibration then HLB SPE)
[5] = extraction method: SPE only (HLB 96-well)
[6] = extraction method: SPE only (HLB 96-well), PES comparison experiment
[7] = extraction method: solvent precipitation (ACN + hexane)
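Wherever chemical recovery by SPE of plasma after PDMS sampling is given: over 400 spiked chemicals quantified by LC-HRMS or GC-HRMS via internal standard calibration, recovery relative to spike mix added to unspiked plasma extract to correct matrix effects.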

Row | SMILES | chemical recovery into PDMS ([1]; equilibration time (d): 1) | chemical recovery into PDMS ([1]; equilibration time (d): 3) | chemical recovery into PDMS ([1]; equilibration time (d): 6) | chemical recovery [2, 4] | chemical recovery [2, 5] | chemical recovery [2, 6] | chemical recovery [2, 7] | chemical recovery by SPE of plasma ([3]; equilibration time (d): 1) | chemical recovery by SPE of plasma ([3]; equilibration time (d): 3) | chemical recovery by SPE of plasma ([3]; equilibration time (d): 6)
1 | COCCN(C(=O)CCl)c1c(C)cccc1C [Dimethachlor] | 34.9 ± 0.41% | 37.6 ± 4.3% | 38 ± 0.68% | 45.9 ± 7% | 46.6 ± 1.6% | 47.8 ± 7.7% | 63.4 ± 4.6% | 2.27 ± 0.1% | 2.96 ± 0.38% | 1.66 ± 0.09%
2 | COCC(C)N(C(=O)CCl)c1c(C)csc1C (stereo not given) [Dimethenamid] | 41.5 ± 0.65% | 46.1 ± 4.6% | 44.9 ± 2.2% | 59.7 ± 19% | 53.9 ± 1.1% | 46.6 ± 8.4% | 55.4 ± 3.7% | 1.45 ± 0.053% | 2.08 ± 0.36% | 1.25 ± 0.1%
3 | CNC(=O)/C(=N/OC)c1ccccc1COc1cc(C)ccc1C [Dimoxystrobin] | 42.8 ± 4.3% | 44.9 ± 3.4% | 43.2 ± 1.9% | 60.1 ± 20% | 35.7 ± 4% | 50.3 ± 9.1% | 72.7 ± 5.8% | 3.56 ± 3.1% | 9.02 ± 0.83% | 7.35 ± 0.63%
4 | CCCCCCCCc1cccc(Nc2ccccc2)c1CCCCCCCC [Dioctyldiphenylamine] | 3.85 ± 3.4% | 5.97 ± 3% | 6.08 ± 2.5% | – | 7.45 ± 4.7% | – | – | 0.988 ± 0.82% | 0.992 ± 0.41% | 0.785 ± 0.37%
5 | CN(C)CCOC(c1ccccc1)c1ccccc1 [Diphenhydramine] | 0.00464 ± 0.0041% | 0.0114 ± 0.013% | – | 0.391 ± 0.13% | 44.7 ± 3% | 50.3 ± 5.5% | 52.4 ± 4.6% | 0.353 ± 0.014% | 0.464 ± 0.19% | 0.236 ± 0.039%
6 | c1ccc(Cc2ccccc2)cc1 [Diphenylmethane] | 33.8 ± 1.2% | – | 40.4 ± 12% | – | 20.4 ± 5.3% | – | – | – | 10.1 ± 5.8% | 5.98 ± 9.4%
7 | O=S(=O)(c1ccccc1)c1ccccc1 [Diphenylsulfone] | 56.9 ± 12% | – | – | – | 0.293 ± 0.035% | 15.5 ± 1.1% | 16.4 ± 3.6% | 5.48 ± 3.7% | 9.14 ± 0.92% | 7.53 ± 2.3%
8 | CN(C)C(=O)Nc1ccc(Cl)c(Cl)c1 [Diuron] | 32.6 ± 1.8% | 36.3 ± 1.6% | 37 ± 2% | 56.2 ± 5% | 48.9 ± 3.2% | 55.9 ± 7.4% | 74.6 ± 2.9% | 8.44 ± 0.83% | 7.52 ± 0.91% | 4.83 ± 0.33%
9 | CC1CN(C2CCCCCCCCCCC2)CC(C)O1 (stereo not given) [Dodemorph] | 1.2 ± 0.66% | 1.32 ± 1% | 1.41 ± 0.46% | – | 29 ± 0.98% | 44.3 ± 4.7% | 73 ± 8.6% | 0.166 ± 0.13% | 0.11 ± 0.031% | 0.044 ± 0.0048%
10 | C[C@]12CCC(=O)C=C1[C@@H]1C[C@@H]1[C@H]1[C@@H]3[C@@H]4C[C@@H]4[C@@]4(CCC(=O)O4)[C@@]3(C)CC[C@@H]12 [Drospirenone] | 41.9 ± 2.5% | 45.7 ± 3% | 44.9 ± 1.4% | – | – | 42.6 ± 8.3% | – | 3.88 ± 0.83% | 2.16 ± 0.41% | 1.04 ± 0.16%
11 | CC(C)(C)c1ccc(C(=O)CCCN2CCC(OC(c3ccccc3)c3ccccc3)CC2)cc1 [Ebastin] | 0.444 ± 0.073% | 0.712 ± 0.075% | 0.469 ± 0.24% | – | – | 36.2 ± 9% | – | 0.574 ± 0.23% | – | –
12 | O=C1Nc2ccc(Cl)cc2C(C#CC2CC2)(C(F)(F)F)O1 (stereo not given) [Efavirenz] | 44.7 ± 4.4% | 46.6 ± 4.5% | 47.4 ± 0.83% | – | 27.1 ± 5.3% | 38.7 ± 7.3% | 41.4 ± 3.2% | 4.94 ± 4.3% | 6.96 ± 1.3% | 1.44 ± 2.5%
13 | CC[C@H](C)[C@H]1O[C@]2(C=C[C@@H]1C)C[C@@H]1C[C@@H](C/C=C(\C)[C@@H](O[C@H]3C[C@H](OC)[C@@H](O[C@H]4C[C@H](OC)[C@@H](NC)[C@H](C)O4)[C@H](C)O3)[C@@H](C)/C=C/C=C3\CO[C@@H]4[C@H](O)C(C)=C[C@@H](C(=O)O1)[C@]34O)O2 [Emamectin B1a] | 0.154 ± 0.044% | 0.139 ± 0.047% | 0.0633 ± 0.056% | – | – | 29.7 ± 9.1% | 69 ± 6.4% | 9.54 ± 2.3% | 9.04 ± 3% | 8.2 ± 4.6%
14 | CCOC1Oc2ccc(OS(C)(=O)=O)cc2C1(C)C (stereo not given) [Ethofumesate] | 40.5 ± 3.4% | 42.3 ± 2.6% | 44 ± 0.63% | 43.9 ± 5.2% | 48.8 ± 1.2% | 52.8 ± 9.5% | – | 0.62 ± 1.1% | 1.94 ± 1.7% | 0.896 ± 1.6%
15 | CCOC(=O)c1ccc(N(C)C)cc1 [Ethyl 4-(dimethylamino)benzoate] | 26 ± 6% | 27.7 ± 4.9% | 29.8 ± 3.4% | 25.6 ± 9.8% | 38.6 ± 1.8% | 37.5 ± 6.9% | 60.4 ± 5.1% | 1.27 ± 0.14% | 1.79 ± 0.23% | 1.11 ± 0.13%
16 | CCOP(=S)(OCC)SCn1nnc2ccccc2c1=O [Ethyl azinphos] | 39.8 ± 4.6% | 41.4 ± 0.64% | 42.5 ± 2.1% | – | – | 46.3 ± 6% | 69.5 ± 2.2% | 2.46 ± 0.6% | 2.42 ± 0.18% | 1.19 ± 0.21%
17 | S=C1NCCN1 [Ethylenethiourea] | – | – | 0.013 ± 0.022% | 0.046 ± 0.019% | 0.261 ± 0.34% | – | – | – | 0.0882 ± 0.15% | 0.15 ± 0.26%
18 | CC(Cc1ccc(C(C)(C)C)cc1)CN1CCCCC1 (stereo not given) [Fenpropidin] | – | 0.0302 ± 0.026% | – | – | – | 44.5 ± 7.7% | 105 ± 9.7% | 0.126 ± 0.086% | 0.0736 ± 0.023% | 0.0409 ± 0.011%
19 | CC(Cc1ccc(C(C)(C)C)cc1)CN1C[C@@H](C)O[C@@H](C)C1 (stereo not given in full) [Fenpropimorph] | 0.0443 ± 0.064% | 0.0146 ± 0.013% | 0.0427 ± 0.056% | – | – | 43.4 ± 8% | 80.2 ± 11% | 0.124 ± 0.08% | 0.066 ± 0.064% | 0.0142 ± 0.017%
20 | CC(C)(C)NC(=O)[C@H]1CC[C@H]2[C@@H]3CC[C@H]4NC(=O)C=C[C@]4(C)[C@H]3CC[C@]12C [Finasteride] | 32.6 ± 3% | 37.9 ± 1.4% | 38.5 ± 0.91% | – | – | 47.9 ± 6.3% | – | 9.28 ± 1.5% | 5.81 ± 1.2% | 3.05 ± 0.42%
21 | N#Cc1nn(-c2c(Cl)cc(C(F)(F)F)cc2Cl)c(N)c1C(F)(F)F [Fipronil desulfinyl] | 33.7 ± 0.57% | 36.3 ± 2.9% | 34.8 ± 0.66% | – | 30.2 ± 6.1% | 67.3 ± 7.3% | 53.7 ± 4.2% | 17.6 ± 2.5% | 18 ± 1.9% | 13.8 ± 0.85%
22 | N#Cc1nn(-c2c(Cl)cc(C(F)(F)F)cc2Cl)c(N)c1SC(F)(F)F [Fipronil sulfide] | 22.6 ± 0.34% | 25.1 ± 1.1% | 24.4 ± 0.83% | – | 30.6 ± 3.4% | 64 ± 7% | 49.8 ± 3.9% | 21.2 ± 6.2% | 19.9 ± 0.92% | 15.3 ± 3%
23 | N#Cc1nn(-c2c(Cl)cc(C(F)(F)F)cc2Cl)c(N)c1S(=O)(=O)C(F)(F)F [Fipronil sulfone] | 27.8 ± 0.78% | 32.2 ± 2.1% | 31 ± 0.79% | – | 36.7 ± 3.6% | 67.9 ± 8.3% | 67.4 ± 7.9% | 41.6 ± 14% | 34.1 ± 7.7% | 30.8 ± 9.5%
24 | N#Cc1nn(-c2c(Cl)cc(C(F)(F)F)cc2Cl)c(N)c1[S+]([O-])C(F)(F)F (stereo not given) [Fipronil] | 25.5 ± 0.91% | 30.2 ± 2.3% | 29 ± 0.92% | – | 31.6 ± 8.2% | 64.5 ± 6.8% | 40.3 ± 3.4% | 19 ± 4.9% | 21.5 ± 4.3% | 15.4 ± 2.5%
